Source: article PMC11589483, “Preparation and anti-colon cancer effect of a novel curcumin analogue (CA8): in vivo and in vitro evaluation” (Frontiers in Pharmacology, 2024)
Like-named read-outs stand apart in the source and are kept apart here.

Key:
liver cancer cells HepG2 = experiment: MTT antiproliferative assay, HepG2; assay type: cell-based; conditions: Homo sapiens
Method: (§1) The human cancer cell lines A549, HepG2, MCF-7, Caco-2, and HeLa and the normal human liver cell line LO2 were all obtained from Shanghai Cell Bank of China. All cells were cultured in RPMI 1640 or DMEM supplemented with 10% fetal bovine serum, 100 U/mL penicillin, and 100 μg/mL streptomycin and incubated at 37°C under 5% CO2 (HEPA incubator class100 Thermo company). The medium was replaced three times a week. Cells used in all were in the exponential growth phase.
(§2) The cell inhibition rate was evaluated using the MTT assay. Briefly, cells were seeded in a 96-well plate at a density of 3–4 × 10^3 cells per well and incubated at 37°C for 24 h. The MCACs to be tested were dissolved in dimethyl sulfoxide (DMSO, Merck, Germany) and diluted to five concentrations (3.75, 7.5, 15, 30, 60 μM/L) with RPMI 1640 medium, with each dose analyzed in quadruplicate. The concentration of DMSO was always maintained below 1‰, a concentration that is nontoxic to cells. After incubation for 24 or 48 h, MTT reagent (5 mg/mL) was added to each well and the samples were incubated for 3 h at 37°C in the dark. The absorbance of formazan crystals dissolved in 150 µL of DMSO was measured at 570 nm using a microplate reader to identify the cytotoxic effect of the analogues.

[1] = Solubility in water by HPLC; assay type: physicochemical; conditions: 25°C, mass of solute dissolved at saturation in 100 g of solvent
Method: The solubility of the synthesized compounds in water was determined using high performance liquid chromatography (HPLC). First, 1.000 g of each compound was accurately weighed, placed in 100 g of water, and stirred at 25°C for a period of time. Then, the reaction system was allowed to stand for 1 h. The supernatant was quantitatively taken, diluted with methanol to volume, and centrifuged, and the solubility was determined using HPLC.

[2] = system: colon cancer cells Caco-2; experiment: MTT antiproliferative assay, Caco-2; assay type: cell-based, human; conditions: for IC50: Homo sapiens, read-out: IC50 Caco2; for SI Caco2: logarithm of ratio IC50 LO2 / IC50 cancer cells
Method: as §1, §2

[3] = system: breast cancer cells MCF-7; experiment: MTT antiproliferative assay, MCF-7; assay type: cell-based; conditions: Homo sapiens
Method: as §1, §2

lung cancer cells A549 = experiment: MTT antiproliferative assay, A549; assay type: cell-based; conditions: Homo sapiens
Method: as §1, §2

[4] = system: human cancer cell lines A549, HepG2, MCF-7, Caco-2, and HeLa; experiment: MTT assay, panel of human cancer cell lines (statements in words); assay type: cell-based; conditions: five cancer cell lines, after 24 h of treatment, compared to CU
Method: as §1, §2

[5] = system: normal human liver cell line LO2; experiment: MTT assay, normal liver cells LO2; assay type: cell-based
Method: as §1, §2

[6] = system: cervical cancer cells HeLa; experiment: MTT antiproliferative assay, HeLa; assay type: cell-based; conditions: Homo sapiens
Method: as §1, §2

Caco-2 xenograft tumors = experiment: In vivo anticancer activity, Caco-2 xenograft; conditions: Caco-2 xenograft; CA8 100 mg/kg, CU 100 mg/kg, tegafur 50 mg/kg, gavage every other day
Method: Twenty 5-week-old male BALB nude mice purchased from SPF (Beijing) Biotechnology Co., Ltd. were used for the in vivo pharmacodynamic experiment of CA8. Caco-2 cells (6 × 10^6 cells in 100 μL PBS) were harvested and subcutaneously injected into the right hip of the mice. Then, they were divided into four groups when the tumor volume reached 100 mm^3 and treated with saline, CU (100 mg/kg), tegafur (50 mg/kg), or CA8 (100 mg/kg) via gavage every other day. Tumor size and body weight were measured and recorded every other day. At the end of the experiment, the mice were sacrificed and tumors were harvested and weighed. Tumor volumes were calculated by measuring length (L) and width (W) according to the following formula: V = 0.5 × L × W^2. The tumor tissue was embedded in paraffin, cut into slices, stained with HE, and observed under a light microscope.

Row | Structure (SMILES) | IC50 (liver cancer cells HepG2; HepG2, 24 h) | IC50 (liver cancer cells HepG2; HepG2, 48 h) | Solubility [1] | IC50 ([2]; Caco-2, 24 h) | IC50 ([2]; Caco-2, 48 h) | IC50 ([3]; MCF7, 24 h) | IC50 ([3]; MCF7, 48 h) | IC50 (lung cancer cells A549; A549, 24 h) | IC50 (lung cancer cells A549; A549, 48 h) | cytotoxicity [4] | IC50 ([5]; 24 h) | IC50 ([5]; 48 h) | IC50 ([6]; 24 h) | IC50 ([6]; 48 h) | SI Caco2 ([2]; 24 h) | SI Caco2 ([2]; 48 h) | inhibitory effect on tumor growth (Caco-2 xenograft tumors)
1 | COc1ccc(/C=C/C(=O)CC(=O)/C=C/c2ccc(OC)nc2)cn1 [CA1] | > 60 µM | 46.9 ± 2.6 µM | 0.07 mg/100g | > 60 µM | > 60 µM | > 60 µM | 47.3 ± 2.1 µM | > 60 µM | 28.6 ± 2.2 µM | low toxicity | > 60 µM | 57.6 ± 4.83 µM | > 60 µM | 56.5 ± 3.7 µM | – | – | –
2 | COc1ccc(/C=C/C(=O)/C=C/c2ccc(OC)nc2)cn1 [CA2] | 25.2 ± 1 µM | 19.8 ± 0.4 µM | 0.42 mg/100g | 15.8 ± 0.3 µM | 10.4 ± 0.7 µM | 21.3 ± 3.1 µM | 16.8 ± 0.6 µM | 25.9 ± 1.3 µM | 16.1 ± 0.8 µM | – | 31 ± 0.41 µM | 17.5 ± 1.09 µM | 18.1 ± 0.8 µM | 18.1 ± 0.8 µM | 0.29 | 0.23 | –
3 | COc1ccc(/C=C2\CCC/C(=C\c3ccc(OC)nc3)C2=O)cn1 [CA3] | 30.6 ± 5.99 µM | 15.5 ± 0.42 µM | – | > 60 µM | 47.4 ± 0.91 µM | > 60 µM | > 60 µM | > 60 µM | > 60 µM | low toxicity | > 60 µM | > 60 µM | 29.6 ± 2.57 µM | 38.3 ± 1.11 µM | – | > 0.1 | –
4 | COc1ccc(/C=C2\CN(C)C/C(=C\c3ccc(OC)nc3)C2=O)cn1 [CA4] | 2.63 ± 0.38 µM | 1.95 ± 0.2 µM | 2.63 mg/100g | 7.7 ± 1.8 µM | 9.4 ± 1 µM | 17 ± 1.6 µM | 7.8 ± 0.7 µM | 22.9 ± 2.7 µM | 12.5 ± 0.2 µM | – | 6.11 ± 0.33 µM | 2.5 ± 0.13 µM | 4.6 ± 0.5 µM | 2.7 ± 0.5 µM | −0.10 | −0.59 | –
5 | COc1ccc(/C=C2\CN(C(C)C)C/C(=C\c3ccc(OC)nc3)C2=O)cn1 [CA5] | > 60 µM | 2.18 ± 0.4 µM | 0.22 mg/100g | 14.7 ± 0.73 µM | 4.87 ± 0.19 µM | 30.1 ± 3.36 µM | 4.94 ± 1.42 µM | 28 ± 0.77 µM | 34.7 ± 1.89 µM | – | 9.8 ± 0.51 µM | 6.9 ± 0.46 µM | 2.35 ± 0.09 µM | 1.81 ± 0.36 µM | −0.17 | 0.15 | –
6 | Cc1cc(/C=C2\CNC/C(=C\c3cc(C)c(O)c(C)c3)C2=O)cc(C)c1O [CA6] | 50.4 ± 15.1 µM | 9.28 ± 0.68 µM | 15.04 mg/100g | > 60 µM | > 60 µM | > 60 µM | > 60 µM | > 60 µM | > 60 µM | low toxicity | > 60 µM | > 60 µM | > 60 µM | > 60 µM | – | – | –
7 | Cc1cc(/C=C2\CN(C(C)C)C/C(=C\c3cc(C)c(O)c(C)c3)C2=O)cc(C)c1O [CA7] | 22.7 ± 1.37 µM | 2.71 ± 0.49 µM | 3.29 mg/100g | 44.4 ± 7.38 µM | 7.44 ± 0.49 µM | 54.2 ± 17.3 µM | 18.2 ± 0.52 µM | 36.1 ± 4.76 µM | 43.8 ± 5.13 µM | – | 39.2 ± 1.67 µM | 8.4 ± 0.41 µM | 5.26 ± 0.49 µM | 1.26 ± 0.18 µM | −0.05 | 0.05 | –
8 | COc1cc(/C=C2\CN(C)C/C(=C\c3ccc(OC4CCCCO4)c(OC)c3)C2=O)ccc1OC1CCCCO1 (stereo not shown) [CA9] | 11.2 ± 0.5 µM | 10.7 ± 1.6 µM | 1.37 mg/100g | 3 ± 0.6 µM | 2.09 ± 0.32 µM | 22.2 ± 1.8 µM | 10.9 ± 1.3 µM | 21.4 ± 2.7 µM | 11.7 ± 0.5 µM | – | 15 ± 0.95 µM | 5 ± 0.09 µM | 8.4 ± 0.2 µM | 4.3 ± 0.1 µM | 0.70 | 0.38 | –
9 | O=c1[nH]c(=O)n(C2CCCO2)cc1F (stereo not shown) [tegafur, reference compound] | – | – | – | – | – | – | – | – | – | – | – | – | – | – | – | – | CA8 > tegafur > CU
